{"source": "patent US6689773B2", "about": "“Uracil substituted phenyl sulfamoyl carboxamides” (BASF Aktiengesellschaft, priority 2000, dated 2004)", "format_in_all_cases": "in vivo", "key": {"[1]": {"tested_on": "ABUTH, Velvetleaf, Abutilon theophrasti, Medic.", "test": "Postemergence herbicidal evaluation (Example 147)", "conditions": "rating scale 0-9, two to three weeks after treatment", "method_in_brief": "(§1)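 Greenhouse postemergence test: two-week seedlings sprayed at about 0.016 to 0.032 kg/ha active. Scored visually, 0-9 scale, after two to three weeks.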"}, "[2]": {"tested_on": "XANST, Cocklebur, Xanthium strumariam", "test": "Postemergence herbicidal evaluation (Example 147)", "conditions": "rating scale 0-9, two to three weeks after treatment", "method_in_brief": "as §1"}, "[3]": {"tested_on": "DIGSA, Crabgrass, (Hairy) L, Digitaria sanguinalis, (L)Scop", "test": "Postemergence herbicidal evaluation (Example 147)", "conditions": "rating scale 0-9, two to three weeks after treatment", "method_in_brief": "as §1"}, "[4]": {"tested_on": "ALOMY, Blackgrass, Alopecurus myosuroides", "test": "Postemergence herbicidal evaluation (Example 147)", "conditions": "rating scale 0-9, two to three weeks after treatment", "method_in_brief": "as §1"}, "[5]": {"tested_on": "AMBEL, Ragweed, Common, Ambrosia artemiisifolia, L.", "test": "Postemergence herbicidal evaluation (Example 147)", "conditions": "rating scale 0-9, two to three weeks after treatment", "method_in_brief": "as §1"}, "[6]": {"tested_on": "GLXMA, Soybean, Glycine max, (L.) Merr.", "test": "Postemergence herbicidal evaluation (Example 147)", "conditions": "rating scale 0-9, two to three weeks after treatment", "method_in_brief": "as §1"}, "[7]": {"tested_on": "CHEAL, Lambsquarters, Chenopodium album, L. Common", "test": "Postemergence herbicidal evaluation (Example 147)", "conditions": "rating scale 0-9, two to three weeks after treatment", "method_in_brief": "as §1"}, "[8]": {"tested_on": "IPOHE, Morningglory, Ivyleaf, Ipomoea hederacea, (L)Jacq.", "test": "Postemergence herbicidal evaluation (Example 147)", "conditions": "rating scale 0-9, two to three weeks after treatment", "method_in_brief": "as §1"}, "[9]": {"tested_on": "ZEAMX, Field corn, Zea mays L.", "test": "Postemergence herbicidal evaluation (Example 147)", "conditions": "rating scale 0-9, two to three weeks after treatment", "method_in_brief": "as §1"}, "[10]": {"tested_on": "TRZAW, Winter wheat, Tritium Aestivum, L. (Winter)", "test": "Postemergence herbicidal evaluation (Example 147)", "conditions": "rating scale 0-9, two to three weeks after treatment", "method_in_brief": "as §1"}, "[11]": {"tested_on": "SETVI, Green foxtail, Setaria viridis, (L.)Beau", "test": "Postemergence herbicidal evaluation (Example 147)", "conditions": "rating scale 0-9, two to three weeks after treatment", "method_in_brief": "as §1"}, "[12]": {"tested_on": "ECHCG, Barnyardgrass, Echinochloa crusgalli, (L.)Beau", "test": "Postemergence herbicidal evaluation (Example 147)", "conditions": "rating scale 0-9, two to three weeks after treatment", "method_in_brief": "as §1"}, "[13]": {"tested_on": "ABUTH, Velvetleaf, Abutilon theophrasti, Medic.", "test": "Preemergence herbicidal evaluation (Example 148)", "conditions": "rating scale 0-9, two to four weeks after treatment", "method_in_brief": "(§2)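 Visual rating vs. control (stand, vigor, malformation, size, chlorosis, overall appearance) at 2–4 wk post-treatment. Soil surface sprayed right after sowing; ~0.125–0.250 kg/ha in aqueous acetone. Repeat tests averaged.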"}, "[14]": {"tested_on": "XANST, Cocklebur, Xanthium strumariam", "test": "Preemergence herbicidal evaluation (Example 148)", "conditions": "rating scale 0-9, two to four weeks after treatment", "method_in_brief": "as §2"}, "[15]": {"tested_on": "DIGSA, Crabgrass, (Hairy) L, Digitaria sanguinalis, (L)Scop", "test": "Preemergence herbicidal evaluation (Example 148)", "conditions": "rating scale 0-9, two to four weeks after treatment", "method_in_brief": "as §2"}, "[16]": {"tested_on": "ALOMY, Blackgrass, Alopecurus myosuroides", "test": "Preemergence herbicidal evaluation (Example 148)", "conditions": "rating scale 0-9, two to four weeks after treatment", "method_in_brief": "as §2"}, "[17]": {"tested_on": "AMBEL, Ragweed, Common, Ambrosia artemiisifolia, L.", "test": "Preemergence herbicidal evaluation (Example 148)", "conditions": "rating scale 0-9, two to four weeks after treatment", "method_in_brief": "as §2"}, "[18]": {"tested_on": "GLXMA, Soybean, Glycine max, (L.) Merr.", "test": "Preemergence herbicidal evaluation (Example 148)", "conditions": "rating scale 0-9, two to four weeks after treatment", "method_in_brief": "as §2"}, "[19]": {"tested_on": "CHEAL, Lambsquarters, Chenopodium album, L. Common", "test": "Preemergence herbicidal evaluation (Example 148)", "conditions": "rating scale 0-9, two to four weeks after treatment", "method_in_brief": "as §2"}, "[20]": {"tested_on": "IPOHE, Morningglory, Ivyleaf, Ipomoea hederacea, (L)Jacq.", "test": "Preemergence herbicidal evaluation (Example 148)", "conditions": "rating scale 0-9, two to four weeks after treatment", "method_in_brief": "as §2"}, "[21]": {"tested_on": "ZEAMX, Field corn, Zea mays L.", "test": "Preemergence herbicidal evaluation (Example 148)", "conditions": "rating scale 0-9, two to four weeks after treatment", "method_in_brief": "as §2"}, "[22]": {"tested_on": "TRZAW, Winter wheat, Tritium Aestivum, L. (Winter)", "test": "Preemergence herbicidal evaluation (Example 148)", "conditions": "rating scale 0-9, two to four weeks after treatment", "method_in_brief": "as §2"}, "[23]": {"tested_on": "SETVI, Green foxtail, Setaria viridis, (L.)Beau", "test": "Preemergence herbicidal evaluation (Example 148)", "conditions": "rating scale 0-9, two to four weeks after treatment", "method_in_brief": "as §2"}, "[24]": {"tested_on": "ECHCG, Barnyardgrass, Echinochloa crusgalli, (L.)Beau", "test": "Preemergence herbicidal evaluation (Example 148)", "conditions": "rating scale 0-9, two to four weeks after treatment", "method_in_brief": "as §2"}}}
{"smiles": "CN(Cc1cccc(Cl)c1)S(=O)(=O)NC(=O)c1cc(-n2c(=O)cc(C(F)(F)F)n(C)c2=O)c(F)cc1Cl", "note": "[Example 55]", "values": [{"measurement": "Postemergence herbicidal rating ABUTH", "setting": "[1]; rate 0.016 kg/ha", "result": 9.0}, {"measurement": "Postemergence herbicidal rating ABUTH", "setting": "[1]; rate 0.032 kg/ha", "result": 9.0}, {"measurement": "Postemergence herbicidal rating XANST", "setting": "[2]; rate 0.016 kg/ha", "result": 9.0}, {"measurement": "Postemergence herbicidal rating XANST", "setting": "[2]; rate 0.032 kg/ha", "result": 8.0}, {"measurement": "Postemergence herbicidal rating DIGSA", "setting": "[3]; rate 0.016 kg/ha", "result": 5.0}, {"measurement": "Postemergence herbicidal rating DIGSA", "setting": "[3]; rate 0.032 kg/ha", "result": 6.0}, {"measurement": "Postemergence herbicidal rating ALMOY", "setting": "[4]; rate 0.016 kg/ha", "result": 2.0}, {"measurement": "Postemergence herbicidal rating ALMOY", "setting": "[4]; rate 0.032 kg/ha", "result": 2.0}, {"measurement": "Postemergence herbicidal rating AMBEL", "setting": "[5]; rate 0.016 kg/ha", "result": 8.0}, {"measurement": "Postemergence herbicidal rating AMBEL", "setting": "[5]; rate 0.032 kg/ha", "result": 9.0}, {"measurement": "Postemergence herbicidal rating GLXMA", "setting": "[6]; rate 0.016 kg/ha", "result": 8.0}, {"measurement": "Postemergence herbicidal rating GLXMA", "setting": "[6]; rate 0.032 kg/ha", "result": 8.0}, {"measurement": "Postemergence herbicidal rating CHEAL", "setting": "[7]; rate 0.016 kg/ha", "result": 7.0}, {"measurement": "Postemergence herbicidal rating CHEAL", "setting": "[7]; rate 0.032 kg/ha", "result": 7.0}, {"measurement": "Postemergence herbicidal rating IPOHE", "setting": "[8]; rate 0.016 kg/ha", "result": 8.0}, {"measurement": "Postemergence herbicidal rating IPOHE", "setting": "[8]; rate 0.032 kg/ha", "result": 9.0}, {"measurement": "Postemergence herbicidal rating ZEAMX", "setting": "[9]; rate 0.016 kg/ha", "result": 8.0}, {"measurement": "Postemergence herbicidal rating ZEAMX", "setting": "[9]; rate 0.032 kg/ha", "result": 8.0}, {"measurement": "Postemergence herbicidal rating TRZAW", "setting": "[10]; rate 0.016 kg/ha", "result": 6.0}, {"measurement": "Postemergence herbicidal rating TRZAW", "setting": "[10]; rate 0.032 kg/ha", "result": 6.0}, {"measurement": "Postemergence herbicidal rating SETVI", "setting": "[11]; rate 0.016 kg/ha", "result": 7.0}, {"measurement": "Postemergence herbicidal rating SETVI", "setting": "[11]; rate 0.032 kg/ha", "result": 8.0}, {"measurement": "Postemergence herbicidal rating ECHCG", "setting": "[12]; rate 0.016 kg/ha", "result": 7.0}, {"measurement": "Postemergence herbicidal rating ECHCG", "setting": "[12]; rate 0.032 kg/ha", "result": 7.0}, {"measurement": "Preemergence herbicidal rating ABUTH", "setting": "[13]; rate 0.125 kg/ha", "result": 9.0}, {"measurement": "Preemergence herbicidal rating ABUTH", "setting": "[13]; rate 0.25 kg/ha", "result": 9.0}, {"measurement": "Preemergence herbicidal rating XANST", "setting": "[14]; rate 0.125 kg/ha", "result": 6.0}, {"measurement": "Preemergence herbicidal rating XANST", "setting": "[14]; rate 0.25 kg/ha", "result": 7.0}, {"measurement": "Preemergence herbicidal rating DIGSA", "setting": "[15]; rate 0.125 kg/ha", "result": 8.0}, {"measurement": "Preemergence herbicidal rating DIGSA", "setting": "[15]; rate 0.25 kg/ha", "result": 8.0}, {"measurement": "Preemergence herbicidal rating ALMOY", "setting": "[16]; rate 0.125 kg/ha", "result": 0.0}, {"measurement": "Preemergence herbicidal rating ALMOY", "setting": "[16]; rate 0.25 kg/ha", "result": 0.0}, {"measurement": "Preemergence herbicidal rating AMBEL", "setting": "[17]; rate 0.125 kg/ha", "result": 8.0}, {"measurement": "Preemergence herbicidal rating AMBEL", "setting": "[17]; rate 0.25 kg/ha", "result": 9.0}, {"measurement": "Preemergence herbicidal rating GLXMA", "setting": "[18]; rate 0.125 kg/ha", "result": 8.0}, {"measurement": "Preemergence herbicidal rating GLXMA", "setting": "[18]; rate 0.25 kg/ha", "result": 8.0}, {"measurement": "Preemergence herbicidal rating CHEAL", "setting": "[19]; rate 0.125 kg/ha", "result": 8.0}, {"measurement": "Preemergence herbicidal rating CHEAL", "setting": "[19]; rate 0.25 kg/ha", "result": 9.0}, {"measurement": "Preemergence herbicidal rating IPOHE", "setting": "[20]; rate 0.125 kg/ha", "result": 8.0}, {"measurement": "Preemergence herbicidal rating IPOHE", "setting": "[20]; rate 0.25 kg/ha", "result": 9.0}, {"measurement": "Preemergence herbicidal rating ZEAMX", "setting": "[21]; rate 0.125 kg/ha", "result": 0.0}, {"measurement": "Preemergence herbicidal rating ZEAMX", "setting": "[21]; rate 0.25 kg/ha", "result": 1.0}, {"measurement": "Preemergence herbicidal rating TRZAW", "setting": "[22]; rate 0.125 kg/ha", "result": 1.0}, {"measurement": "Preemergence herbicidal rating TRZAW", "setting": "[22]; rate 0.25 kg/ha", "result": 2.0}, {"measurement": "Preemergence herbicidal rating SETVI", "setting": "[23]; rate 0.125 kg/ha", "result": 6.0}, {"measurement": "Preemergence herbicidal rating SETVI", "setting": "[23]; rate 0.25 kg/ha", "result": 8.0}, {"measurement": "Preemergence herbicidal rating ECHCG", "setting": "[24]; rate 0.125 kg/ha", "result": 5.0}, {"measurement": "Preemergence herbicidal rating ECHCG", "setting": "[24]; rate 0.25 kg/ha", "result": 9.0}]}
